Source: ChEMBL document CHEMBL1833895, “Synthesis and biological activity of desmethoxy analogues of coruscanone A” (Bioorg Med Chem Lett, 2011)

How the values were obtained:
[1] = system: Trichophyton mentagrophytes; assay: Antifungal activity against Trichophyton mentagrophytes 445 after 120 hrs by microdilution method; format: functional, organism-based; details: Trichophyton mentagrophytes, 445, 120 h
Nakaseomyces glabratus [2] = assay: Antifungal activity against Candida glabrata 20/I after 24 hrs by microdilution method; format: functional
Candida tropicalis [3] = assay: Antifungal activity against Candida tropicalis 156 after 24 hrs by microdilution method; format: functional; details: Candida tropicalis, 156, 24 h
Candida albicans [4] = assay: Antifungal activity against Candida albicans ATCC 44859 after 48 hrs by microdilution method; format: functional; details: ATCC 44859, 48 h
Candida tropicalis [5] = assay: Antifungal activity against Candida tropicalis 156 after 48 hrs by microdilution method; format: functional; details: Candida tropicalis, 156, 48 h
Nakaseomyces glabratus [6] = assay: Antifungal activity against Candida glabrata 20/I after 48 hrs by microdilution method; format: functional
Trichosporon asahii [7] = assay: Antifungal activity against Trichosporon asahii 1188 after 48 hrs by microdilution method; format: functional; details: Trichosporon asahii, 1188, 48 h
Aspergillus fumigatus [8] = assay: Antifungal activity against Aspergillus fumigatus 231 after 48 hrs by microdilution method; format: functional, organism-based; details: Aspergillus fumigatus, 231, 48 h
Pichia kudriavzevii [9] = assay: Antifungal activity against Candida krusei E28 after 24 hrs by microdilution method; format: functional; details: E28, 24 h
Candida albicans [10] = assay: Antifungal activity against Candida albicans ATCC 44859 after 24 hrs by microdilution method; format: functional; details: ATCC 44859, 24 h
CCRF-CEM = assay: Cytostatic activity against human CCRF-CEM cells after 72 hrs by XTT assay; format: ADME, cell-based
[11] = system: Trichophyton mentagrophytes; assay: Antifungal activity against Trichophyton mentagrophytes 445 after 72 hrs by microdilution method; format: functional, organism-based; details: Trichophyton mentagrophytes, 445, 72 h
Trichosporon asahii [12] = assay: Antifungal activity against Trichosporon asahii 1188 after 24 hrs by microdilution method; format: functional; details: Trichosporon asahii, 1188, 24 h
Lichtheimia corymbifera [13] = assay: Antifungal activity against Absidia corymbifera 272 after 48 hrs by microdilution method; format: functional, organism-based; details: Lichtheimia corymbifera, 272, 48 h
HL-60 [14] = assay: Cytostatic activity against human HL60 cells after 72 hrs by XTT assay; format: ADME, cell-based; details: HL-60, 72 h
L1210 [15] = assay: Cytostatic activity against mouse L1210 cells after 72 hrs by XTT assay; format: ADME, cell-based; details: L1210, 72 h
Pichia kudriavzevii [16] = assay: Antifungal activity against Candida krusei E28 after 48 hrs by microdilution method; format: functional; details: E28, 48 h
Lichtheimia corymbifera [17] = assay: Antifungal activity against Absidia corymbifera 272 after 24 hrs by microdilution method; format: functional, organism-based; details: Lichtheimia corymbifera, 272, 24 h
Aspergillus fumigatus [18] = assay: Antifungal activity against Aspergillus fumigatus 231 after 24 hrs by microdilution method; format: functional, organism-based; details: Aspergillus fumigatus, 231, 24 h
Clavispora lusitaniae [19] = assay: Antifungal activity against Candida lusitaniae 2446/I after 24 hrs by microdilution method; format: functional
Pichia kudriavzevii [20] = assay: Antifungal activity against Candida krusei ATCC 6258 after 48 hrs by microdilution method; format: functional; details: ATCC 6258, 48 h
Pichia kudriavzevii [21] = assay: Antifungal activity against Candida krusei ATCC 6258 after 24 hrs by microdilution method; format: functional; details: ATCC 6258, 24 h
Candida parapsilosis [22] = assay: Antifungal activity against Candida parapsilosis ATCC 22019 after 48 hrs by microdilution method; format: functional; details: Lodderomyces parapsilosis, ATCC 22019, 48 h
HL-60 [23] = assay: Cytostatic activity against human HL60 cells at 10 umol/L after 72 hrs by XTT assay; format: ADME, cell-based; details: hl-60, 72 h, 10 µM
Candida albicans [24] = assay: Antifungal activity against Candida albicans ATCC 90028 after 24 hrs by microdilution method; format: functional; details: ATCC 90028, 24 h
Candida albicans [25] = assay: Antifungal activity against Candida albicans ATCC 90028 after 48 hrs by microdilution method; format: functional; details: ATCC 90028, 48 h
L1210 [26] = assay: Cytostatic activity against mouse L1210 cells at 10 umol/L after 72 hrs by XTT assay; format: ADME, cell-based; details: l1210, 72 h, 10 µM
Candida parapsilosis [27] = assay: Antifungal activity against Candida parapsilosis ATCC 22019 after 24 hrs by microdilution method; format: functional; details: Lodderomyces parapsilosis, ATCC 22019, 24 h
[28] = Cytostatic activity against human COLO201 cells after 72 hrs by XTT assay; format: ADME, cell-based; details: COLO 201, 72 h
HT-29 = assay: Cytostatic activity against human HT-29 cells at 10 umol/L after 72 hrs by XTT assay; format: ADME, cell-based; details: ht-29, 72 h, 10 µM
Clavispora lusitaniae [29] = assay: Antifungal activity against Candida lusitaniae 2446/I after 48 hrs by microdilution method; format: functional
[30] = Cytostatic activity against human HeLaS3 cells after 48 hrs by XTT assay; format: ADME, cell-based; details: HeLa S3, 48 h

In the case of COC(/C=C/c1ccccc1)=C1\C(=O)C=C(C)C1=O [CORUSCANONE A], the IC50 [1] is reported as 7.81 µM, the IC80 (Nakaseomyces glabratus [2]) is reported as 125 µM and the IC80 (Candida tropicalis [3]) is reported as 3.91 µM. It also gave an IC80 (Candida albicans [4]) of 3.91 µM, an IC80 (Candida tropicalis [5]) of 7.1 µM and an IC80 (Nakaseomyces glabratus [6]) of 125 µM. It also gave an IC80 (Trichosporon asahii [7]) of 7.81 µM, an IC80 (Aspergillus fumigatus [8]) of 250 µM and an IC80 (Pichia kudriavzevii [9]) of 125 µM. The IC80 (Candida albicans [10]) was 0.98 µM, the IC50 (CCRF-CEM) was 3.6 µM and the IC80 [11] was 3.91 µM. The IC80 (Trichosporon asahii [12]) was 0.98 µM, the IC80 (Lichtheimia corymbifera [13]) was 250 µM and the IC50 (HL-60 [14]) was 4.5 µM. The IC50 (L1210 [15]) was 3.8 µM, the IC80 (Pichia kudriavzevii [16]) was 250 µM and the IC80 (Lichtheimia corymbifera [17]) was 31.2 µM. The IC80 (Aspergillus fumigatus [18]) was 31.2 µM.

Work on O=C1C=CC(=O)C1=Cc1ccc2ccccc2c1 yielded an IC50 [1] of 15.6 µM, an IC80 (Nakaseomyces glabratus [2]) of 31.2 µM and an IC80 (Candida tropicalis [3]) of 31.2 µM. For the same molecule, the IC80 (Candida albicans [4]) was 15.6 µM, the IC80 (Candida tropicalis [5]) was 31.2 µM and the IC80 (Nakaseomyces glabratus [6]) was 31.2 µM. It also gave an IC80 (Trichosporon asahii [7]) of 62.5 µM, an IC80 (Clavispora lusitaniae [19]) of 15.6 µM and an IC80 (Aspergillus fumigatus [8]) of 31.2 µM. It also gave an IC80 (Pichia kudriavzevii [9]) of 31.2 µM, an IC80 (Candida albicans [10]) of 15.6 µM and an IC80 (Pichia kudriavzevii [20]) of 31.2 µM. For the same molecule, the IC50 (CCRF-CEM) was 3.7 µM, the IC80 [11] was 7.81 µM and the IC80 (Trichosporon asahii [12]) was 15.6 µM. For the same molecule, the IC80 (Lichtheimia corymbifera [13]) was > 125 µM, the IC80 (Pichia kudriavzevii [21]) was 15.6 µM and the IC80 (Pichia kudriavzevii [16]) was 31.2 µM. The IC80 (Candida parapsilosis [22]) was 15.6 µM, the IC80 (Lichtheimia corymbifera [17]) was 125 µM and the Activity (HL-60 [23]) was “Non-toxic”. It also gave an IC80 (Candida albicans [24]) of 15.6 µM, an IC80 (Candida albicans [25]) of 15.6 µM and an IC80 (Aspergillus fumigatus [18]) of 15.6 µM. The Activity (L1210 [26]) was “Non-toxic”, the IC80 (Candida parapsilosis [27]) was 15.6 µM and the IC50 [28] was 2.4 µM. For the same molecule, the Activity (HT-29) was “Non-toxic”, the IC80 (Clavispora lusitaniae [29]) was 15.6 µM and the IC50 [30] was 13.5 µM.
